The values below come from patent publication EP0908457B1, “3-(1,2-benzisothiazol- and isoxazol-5-Y1)-2,4(1H,3H)-pyrimidinedione or thione and 3-(1,2-benzisothiazol- and isoxazol-5-y1)-4(3H)-pyrimidinone or thione herbicidal agents” (BASF AKTIENGESELLSCHAFT, priority 1997, dated 1999).

Common to all, as to type: in vivo
For one assay, the system named is Cyperus iria. As to the kind of experiment: Preemergence weed control under flooded paddy conditions, CYPIR (Rice Flatsedge). As to herbicidal effect rating, CYPIR: meaning of each grade not given here. The conditions noted are these: flooded paddy; for CYPIR herbicidal rating / herbicidal effect rating, CYPIR: rated three to four weeks after treatment; for CYPIR: herbicidal effect rating 0-9, three to four weeks after treatment.
Assay [1] has as its system Monochoria vaginalis, Presl. As to the kind of experiment: Preemergence weed control under flooded paddy conditions, MOOVA (Monochoria). As to herbicidal effect rating, MOOVA: meaning of each grade not given here. Particulars: flooded paddy; for MOOVA herbicidal rating / herbicidal effect rating, MOOVA: rated three to four weeks after treatment; for MOOVA: herbicidal effect rating 0-9, three to four weeks after treatment.
In assay [2] the test system is Echinochloa oryzoides (Ard.) Fritsch. The assay is described as follows: Preemergence weed control under flooded paddy conditions, ECHORC (Watergrass (Calif.)). As to herbicidal effect rating, ECHORC: meaning of each grade not given here. The conditions noted are these: flooded paddy; for ECHORC herbicidal rating / herbicidal effect rating, ECHORC: rated three to four weeks after treatment; for ECHORC: herbicidal effect rating 0-9, three to four weeks after treatment.

For assay [3], the system named is Cyperus serotinus, Rottb. As to the kind of experiment: Preemergence weed control under flooded paddy conditions, CYPSE (Flatsedge). As to herbicidal effect rating, CYPSE: meaning of each grade not given here. Particulars: for CYPSE herbicidal rating / herbicidal effect rating, CYPSE: rated three to four weeks after treatment; for CYPSE: herbicidal effect rating 0-9, three to four weeks after treatment.
For the next assay, the system named is Sagittaria pygmaea, L. As to the kind of experiment: Preemergence weed control under flooded paddy conditions, SAGPY (Arrowhead (Pygmaea)). As to herbicidal effect rating, SAGPY: meaning of each grade not given here. The conditions noted are these: flooded paddy; for SAGPY herbicidal rating / herbicidal effect rating, SAGPY: rated three to four weeks after treatment; for SAGPY: herbicidal effect rating 0-9, three to four weeks after treatment.

Setting [4] is: Rate 0.0320 kg/ha, preemergence weeds.
[5] abbreviates: Rate 0.0620 kg/ha, preemergence weeds.
The mark [6] stands for this setting: Rate 0.1250 kg/ha, preemergence weeds.
[7] abbreviates: Rate 0.2500 kg/ha, preemergence weeds.
[8] abbreviates: Rate 0.0320 kg/ha, preemergence.
The mark [9] stands for this setting: Rate 0.0620 kg/ha, preemergence.
[10] abbreviates: Rate 0.1250 kg/ha, preemergence.
Where [11] appears, read: Rate 0.2500 kg/ha, preemergence.
Setting [12] is: 0.0320 kg/ha, preemergence weeds.
[13] abbreviates: 0.0620 kg/ha, preemergence weeds.
The mark [14] stands for this setting: 0.1250 kg/ha, preemergence weeds.
[15] abbreviates: 0.2500 kg/ha, preemergence weeds.

With `Cn1c(C(F)(F)F)cc(=O)n(-c2ccc3snc(COC(=O)c4ccc([N+](=O)[O-])o4)c3c2)c1=O` [Example 476, 2,4(1H,3H)-Pyrimidinedione, 3-[3-(hydroxymethyl)-1,2-benzisothiazol-5-yl]-1-methyl-6-(trifluoromethyl)-, 5-nitro-2-furoate (ester)], the CYPIR herbicidal rating was 4.0 in the assay on Cyperus iria (0.0320 kg/ha, preemergence); 4.0 in the assay with Cyperus iria (0.0620 kg/ha, preemergence); 9.0 with Cyperus iria (0.1250 kg/ha, preemergence); 9.0 in the assay with Cyperus iria (0.2500 kg/ha, preemergence). Besides, the MOOVA herbicidal rating in assay [1] (0.0320 kg/ha, preemergence) is 5.0; in assay [1] (0.0620 kg/ha, preemergence) it was 6.0; in assay [1] (0.1250 kg/ha, preemergence), 6.0; in assay [1] (0.2500 kg/ha, preemergence), 9.0. For the same compound, the ECHORC herbicidal rating in assay [2] (0.0320 kg/ha, preemergence) stood at 0.0; in assay [2] (0.0620 kg/ha, preemergence) it was 2.0; in assay [2] (0.1250 kg/ha, preemergence), 2.0; in assay [2] (0.2500 kg/ha, preemergence), 3.0. Moreover, the CYPSE herbicidal rating stood at 0.0 in assay [3] (0.0320 kg/ha, preemergence); 3.0 in assay [3] (0.1250 kg/ha, preemergence); 6.0 in assay [3] (0.2500 kg/ha, preemergence). The SAGPY herbicidal rating was 0.0 in the assay with Sagittaria pygmaea, L. (0.0320 kg/ha, preemergence); 2.0 in the assay with Sagittaria pygmaea, L. (0.0620 kg/ha, preemergence); 4.0 in the assay on Sagittaria pygmaea, L. (0.1250 kg/ha, preemergence); 5.0 with Sagittaria pygmaea, L. (0.2500 kg/ha, preemergence).
As for `CC(OS(C)(=O)=O)c1nsc2ccc(-n3c(=O)cc(C(F)(F)F)n(C)c3=O)cc12` (stereo not drawn) [Example 309, 2,4(1H,3H)-Pyrimidinedione, 3-[3-(1-hydroxyethyl)-1,2-benzisothiazol-5-yl]-1-methyl-6-(trifluoromethyl)-, methanesulfonate (ester)], the “herbicidal effect rating, CYPIR” value in the assay with Cyperus iria (setting [4]), in the assay with Cyperus iria (setting [5]), in the assay on Cyperus iria (setting [6]) and in the assay on Cyperus iria (setting [7]) was 9.0 in each case. The “herbicidal effect rating, MOOVA” value came out at 6.0 in assay [1] (setting [4]), 6.0 in assay [1] (setting [5]), 9.0 in assay [1] (setting [6]) and 9.0 in assay [1] (setting [7]). For the same compound, the “herbicidal effect rating, ECHORC” value was 1.0 in assay [2] (setting [4]), 2.0 in assay [2] (setting [5]), 4.0 in assay [2] (setting [6]) and 7.0 in assay [2] (setting [7]). For the same compound, the “herbicidal effect rating, CYPSE” value turned out to be 0.0 in assay [3] (setting [4]), 0.0 in assay [3] (setting [5]), 0.0 in assay [3] (setting [6]) and 7.0 in assay [3] (setting [7]). The “herbicidal effect rating, SAGPY” value in the assay on Sagittaria pygmaea, L. (setting [4]) was determined as 2.0; with Sagittaria pygmaea, L. (setting [5]), 3.0; with Sagittaria pygmaea, L. (setting [6]) it was 4.0; with Sagittaria pygmaea, L. (setting [7]), 8.0.
For `Cn1c(C(F)(F)F)cc(=O)n(-c2ccc3snc(C[S+]([O-])c4ccccc4)c3c2)c1=O` (stereo not drawn) [Example 394, 2,4(1H,3H)-Pyrimidinedione, 1-methyl-3-{3-[(phenylsulfinyl)methyl]-1,2-benzisothiazol-5-yl}-6-(trifluoromethyl)-], the “herbicidal effect rating, CYPIR” value was 0.0 in the assay on Cyperus iria (setting [8]), 3.0 in the assay on Cyperus iria (setting [9]), 5.0 with Cyperus iria (setting [10]) and 7.0 with Cyperus iria (setting [11]). The “herbicidal effect rating, MOOVA” value was 8.0 in assay [1] (setting [8]), 8.0 in assay [1] (setting [9]), 9.0 in assay [1] (setting [10]) and 9.0 in assay [1] (setting [11]). In addition, the “herbicidal effect rating, ECHORC” value in assay [2] (setting [8]) was found to be 0.0; in assay [2] (setting [9]) it was 0.0; in assay [2] (setting [10]), 4.0; in assay [2] (setting [11]) it was 6.0. Also, the “herbicidal effect rating, CYPSE” value in assay [3] (setting [8]) stood at 0.0; in assay [3] (setting [9]), 0.0; in assay [3] (setting [10]), 0.0; in assay [3] (setting [11]), 2.0. The “herbicidal effect rating, SAGPY” value in the assay on Sagittaria pygmaea, L. (setting [9]) is recorded as 0.0; in the assay with Sagittaria pygmaea, L. (setting [10]) it was 0.0; in the assay with Sagittaria pygmaea, L. (setting [11]), 0.0.
For `COC(=O)C(C)Oc1cc(C)c(I)cc1-c1nsc2ccc(-n3c(=O)cc(C(F)(F)F)n(C)c3=O)cc12` (stereo not drawn) [Example 470, Propionic acid, 2-{{6-{5-[3,6-dihydro-3-methyl-2,6-dioxo-4-(trifluoromethyl)-1(2H)-pyrimidinyl]-1,2-benzisothiazol-3-yl}-4-iodo-m-tolyl}oxy}-, methyl ester], the CYPIR herbicidal rating with Cyperus iria (0.0320 kg/ha, preemergence) is reported as 0.0; in the assay with Cyperus iria (0.0620 kg/ha, preemergence), 0.0; in the assay with Cyperus iria (0.1250 kg/ha, preemergence) it was 6.0; in the assay with Cyperus iria (0.2500 kg/ha, preemergence) it was 7.0. The MOOVA herbicidal rating was 1.5 in assay [1] (0.0320 kg/ha, preemergence); 2.0 in assay [1] (0.0620 kg/ha, preemergence); 2.0 in assay [1] (0.1250 kg/ha, preemergence); 3.0 in assay [1] (0.2500 kg/ha, preemergence). In addition, the ECHORC herbicidal rating in assay [2] (0.0320 kg/ha, preemergence) amounted to 8.5; in assay [2] (0.0620 kg/ha, preemergence) it was 9.0; in assay [2] (0.1250 kg/ha, preemergence), 9.0; in assay [2] (0.2500 kg/ha, preemergence) it was 9.0. The CYPSE herbicidal rating in assay [3] (0.0320 kg/ha, preemergence) was determined as 0.0; in assay [3] (0.0620 kg/ha, preemergence), 0.0; in assay [3] (0.1250 kg/ha, preemergence) it was 0.0; in assay [3] (0.2500 kg/ha, preemergence) it was 4.5. Moreover, the SAGPY herbicidal rating amounted to 0.0 in the assay on Sagittaria pygmaea, L. (0.0320 kg/ha, preemergence); 0.0 in the assay with Sagittaria pygmaea, L. (0.0620 kg/ha, preemergence); 0.0 in the assay with Sagittaria pygmaea, L. (0.1250 kg/ha, preemergence); 1.5 with Sagittaria pygmaea, L. (0.2500 kg/ha, preemergence).
For the compound `COC(=O)COc1ccc(C)cc1-c1nsc2cc(Cl)c(-n3c(=O)cc(C(F)(F)F)n(C)c3=O)cc12` [Example 443, Acetic acid, {{2-{6-chloro-5-[3,6-dihydro-3-methyl-2,6-dioxo-4-(trifluoromethyl)-1(2H)-pyrimidinyl]-1,2-benzisothiazol-3-yl}-p-tolyl}oxy}-, methyl ester], the CYPIR was 4.0 in the assay with Cyperus iria (setting [12]), 6.0 in the assay with Cyperus iria (setting [13]), 7.0 in the assay with Cyperus iria (setting [14]) and 7.0 in the assay with Cyperus iria (setting [15]). The MOOVA in assay [1] (setting [12]) was 5.0; in assay [1] (setting [13]) it was 6.0; in assay [1] (setting [14]), 7.0; in assay [1] (setting [15]) it was 7.0. The ECHORC in assay [2] (setting [12]) is on record as 6.0; in assay [2] (setting [13]), 5.0; in assay [2] (setting [14]), 7.0; in assay [2] (setting [15]), 9.0. For the same compound, the CYPSE in assay [3] (setting [12]), in assay [3] (setting [13]) and in assay [3] (setting [14]) was 0.0 in each case. Moreover, the SAGPY in the assay with Sagittaria pygmaea, L. (setting [12]) is reported as 3.0; with Sagittaria pygmaea, L. (setting [13]), 3.0; with Sagittaria pygmaea, L. (setting [14]), 4.0; with Sagittaria pygmaea, L. (setting [15]), 5.0.
As for `Cn1c(C(F)(F)F)cc(=O)n(-c2ccc3snc(CO[N+](=O)[O-])c3c2)c1=O` [Example 310, 2,4(1H,3H)-Pyrimidinedione, 3-[3-(hydroxymethyl)-1,2-benzisothiazol-5-yl]-1-methyl-6-(trifluoromethyl)-, nitrate (ester)], the “herbicidal effect rating, CYPIR” value in the assay on Cyperus iria (setting [4]), in the assay with Cyperus iria (setting [5]), with Cyperus iria (setting [6]) and with Cyperus iria (setting [7]) was 9.0 each time. Also, the “herbicidal effect rating, MOOVA” value in assay [1] (setting [4]), in assay [1] (setting [5]), in assay [1] (setting [6]) and in assay [1] (setting [7]) was 9.0 throughout. In addition, the “herbicidal effect rating, ECHORC” value in assay [2] (setting [4]) is on record as 0.0; in assay [2] (setting [5]) it was 0.0; in assay [2] (setting [6]) it was 2.0; in assay [2] (setting [7]), 3.0. In addition, the “herbicidal effect rating, CYPSE” value in assay [3] (setting [4]), in assay [3] (setting [5]), in assay [3] (setting [6]) and in assay [3] (setting [7]) was 0.0 each time. Also, the “herbicidal effect rating, SAGPY” value in the assay on Sagittaria pygmaea, L. (setting [4]) was 0.0; in the assay on Sagittaria pygmaea, L. (setting [5]), 0.0; with Sagittaria pygmaea, L. (setting [6]) it was 0.0; in the assay with Sagittaria pygmaea, L. (setting [7]) it was 0.0.
